Assay results taken from US20220127247A1, “N-(PYRIDIN-2-YL)PYRIDINE-SULFONAMIDE DERIVATIVES AND THEIR USE IN THE TREATMENT OF DISEASE” (NOVARTIS AG, priority 2019, published 2022).

Target: T1, delF508-CFTR (Homo sapiens, UniProt P13569, DEL508-508)
T1 construct: expressed in transfected cells
Test: Measurement of delF508-CFTR-HRP surface expression in CFBE41o- cells
Format: cell-based
Conditions: for EC50: HRP-tagged delF508-CFTR in CFBE41o- cells, 24 h with compound, luminescence, 10-point curve, top 10 μM; for Emax: efficacy relative to reference compound 3-(6-(1-(2,2-difluorobenzo[d][1,3]dioxol-5-yl)cyclopropane-1-carboxamido)-3-methylpyridin-2-yl)benzoic acid, CFBE41o- cells, 24 h, read-out: DelF508-CFTR-HRP Amax %
How it was run: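 CFBE41o- cells stably expressing delF508-CFTR with HRP in the fourth extracellular loop, induced with 500 ng/mL doxycycline for 48 h, then treated with compound (top 10 μM, 10-point 3-fold) for 24 h at 37° C. Surface HRP detected by luminescence with cell-impermeant substrate; EC50 from logistic fit of triplicates, normalized to lowest concentration.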

T1 sequence (P13569 with tags, fused parts or gaps DEL508-508): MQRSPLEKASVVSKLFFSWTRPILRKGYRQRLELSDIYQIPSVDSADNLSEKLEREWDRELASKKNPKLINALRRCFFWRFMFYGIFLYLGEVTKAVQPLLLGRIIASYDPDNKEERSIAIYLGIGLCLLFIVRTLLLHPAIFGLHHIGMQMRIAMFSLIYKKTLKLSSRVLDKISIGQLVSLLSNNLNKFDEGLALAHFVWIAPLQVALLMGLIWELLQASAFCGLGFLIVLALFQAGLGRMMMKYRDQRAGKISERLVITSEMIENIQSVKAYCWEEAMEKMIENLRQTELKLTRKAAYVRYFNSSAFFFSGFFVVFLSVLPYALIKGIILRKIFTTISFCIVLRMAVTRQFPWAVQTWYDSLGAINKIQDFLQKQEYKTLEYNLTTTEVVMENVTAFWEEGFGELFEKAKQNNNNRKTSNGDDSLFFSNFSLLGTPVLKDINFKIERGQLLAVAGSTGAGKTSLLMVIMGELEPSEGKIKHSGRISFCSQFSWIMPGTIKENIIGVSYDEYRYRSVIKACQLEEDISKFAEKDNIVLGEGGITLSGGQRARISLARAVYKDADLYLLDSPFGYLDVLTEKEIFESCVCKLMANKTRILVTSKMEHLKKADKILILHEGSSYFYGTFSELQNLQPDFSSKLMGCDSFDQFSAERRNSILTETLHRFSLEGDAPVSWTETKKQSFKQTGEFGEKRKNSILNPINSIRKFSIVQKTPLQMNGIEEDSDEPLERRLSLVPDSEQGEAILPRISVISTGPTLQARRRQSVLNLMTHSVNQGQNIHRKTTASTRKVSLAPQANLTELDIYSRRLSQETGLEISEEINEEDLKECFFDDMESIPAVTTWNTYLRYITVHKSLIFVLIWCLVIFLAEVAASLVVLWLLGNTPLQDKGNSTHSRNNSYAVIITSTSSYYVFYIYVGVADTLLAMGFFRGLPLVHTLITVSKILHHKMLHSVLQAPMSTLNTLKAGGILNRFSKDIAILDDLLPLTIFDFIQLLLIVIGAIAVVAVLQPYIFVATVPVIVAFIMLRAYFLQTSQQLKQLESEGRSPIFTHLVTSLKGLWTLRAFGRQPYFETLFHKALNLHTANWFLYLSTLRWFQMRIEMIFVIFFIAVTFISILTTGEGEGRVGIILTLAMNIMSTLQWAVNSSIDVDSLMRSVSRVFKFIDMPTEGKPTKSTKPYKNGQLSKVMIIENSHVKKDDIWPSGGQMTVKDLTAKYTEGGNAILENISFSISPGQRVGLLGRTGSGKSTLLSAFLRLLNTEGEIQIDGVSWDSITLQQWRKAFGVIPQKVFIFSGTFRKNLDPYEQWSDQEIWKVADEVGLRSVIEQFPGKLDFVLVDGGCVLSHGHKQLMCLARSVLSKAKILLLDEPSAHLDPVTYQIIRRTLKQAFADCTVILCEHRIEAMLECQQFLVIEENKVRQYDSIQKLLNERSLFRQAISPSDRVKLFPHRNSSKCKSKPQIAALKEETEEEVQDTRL

Compound	EC50 [nM]	Emax [%]
Cc1cccc(C)c1-c1nc(NS(=O)(=O)c2cccc(N3CCC[C@H]3c3nnn[nH]3)n2)ccc1Cl [Compound 124, (S)-6-(2-(1H-tetrazol-5-yl)pyrrolidin-1-yl)-N-(5-chloro-6-(2,6-dimethylphenyl)pyridin-2-yl)pyridine-2-sulfonamide]	1730	297
Cc1ccccc1-c1nc(NS(=O)(=O)c2cccc(NCC(=O)O)n2)ccc1C(F)(F)F [Compound 146, (6-(N-(6-(o-tolyl)-5-(trifluoromethyl)pyridin-2-yl)sulfamoyl)pyridin-2-yl)glycine]	2500	60
Cc1ccc(F)cc1-c1nc(NS(=O)(=O)c2cccc(N(C)CC3(C(=O)O)CCC3)n2)ccc1C(F)(F)F [Compound 139, 1-(((6-(N-(6-(5-fluoro-2-methylphenyl)-5-(trifluoromethyl)pyridin-2-yl)sulfamoyl)pyridin-2-yl)(methyl)amino)methyl)cyclobutane-1-carboxylic Acid]	1120	–
CN(CCCC(=O)O)c1cccc(S(=O)(=O)Nc2ccc(C(F)(F)F)c(-c3ccccc3C3CC3)n2)n1 [Compound 41, 4-((6-(N-(6-(2-cyclopropylphenyl)-5-(trifluoromethyl)pyridin-2-yl)sulfamoyl)pyridin-2-yl)(methyl)amino)butanoic Acid]	1480	–
Cc1ccc(F)cc1-c1nc(NS(=O)(=O)c2cccc(N3CCCC(C)(CC(=O)O)C3)n2)ccc1C(F)(F)F (stereo not shown) [Compound 52, 2-(1-(6-(N-(6-(5-fluoro-2-methylphenyl)-5-(trifluoromethyl)pyridin-2-yl)sulfamoyl)pyridin-2-yl)-3-methylpiperidin-3-yl)acetic Acid]	1490	–
CCN(CCC(=O)O)c1cccc(S(=O)(=O)Nc2ccc(C(F)(F)F)c(-c3cc(F)ccc3C)n2)n1 [Compound 61, 3-(ethyl(6-(N-(6-(5-fluoro-2-methylphenyl)-5-(trifluoromethyl)pyridin-2-yl)sulfamoyl)pyridin-2-yl)amino)propanoic Acid]	3560	736
CC1(C(=O)O)CCN(c2cccc(S(=O)(=O)Nc3ccc(C(F)(F)F)c(-c4ccccc4-c4ncccn4)n3)n2)CC1 [Compound 18, 4-methyl-1-(6-(N-(6-(2-(pyrimidin-2-yl)phenyl)-5-(trifluoromethyl)pyridin-2-yl)sulfamoyl)pyridin-2-yl)piperidine-4-carboxylic Acid]	2390	97
Cc1c(F)cccc1-c1nc(NS(=O)(=O)c2cccc(N3CCCC(C)(CC(=O)O)C3)n2)ccc1C(F)(F)F (stereo not shown) [Compound 50, 2-(1-(6-(N-(6-(3-fluoro-2-methylphenyl)-5-(trifluoromethyl)pyridin-2-yl)sulfamoyl)pyridin-2-yl)-3-methylpiperidin-3-yl)acetic Acid]	2100	867
CC(C)c1ccccc1-c1nc(NS(=O)(=O)c2cccc(N3CCC(OCC(=O)O)CC3)n2)ccc1C(F)(F)F [Compound 31, 2-((1-(6-(N-(6-(2-isopropylphenyl)-5-(trifluoromethyl)pyridin-2-yl)sulfamoyl)pyridin-2-yl)piperidin-4-yl)nxy)acetic Acid]	2140	443
O=C(O)CCCCNc1cccc(S(=O)(=O)Nc2ccc(C(F)(F)F)c(-c3ccccc3C3CC3)n2)n1 [Compound 42, 5-((6-(N-(6-(2-cyclopropylphenyl)-5-(trifluoromethyl)pyridin-2-yl)sulfamoyl)pyridin-2-yl)amino)pentanoic Acid]	2670	507
Cc1ccccc1-c1nc(NS(=O)(=O)c2cccc(NCCC(=O)O)n2)ccc1C(F)(F)F [Compound 35, 3-((6-(N-(6-(o-tolyl)-5-(trifluoromethyl)pyridin-2-yl)sulfamoyl)pyridin-2-yl)amino)propanoic acid]	2600	209
CCN(CCC(=O)O)c1cc(S(=O)(=O)Nc2ccc(Cl)c(-c3cc(F)ccc3C)n2)ccn1 [Compound 144, 3-((4-(N-(5-chloro-6-(5-fluoro-2-methylphenyl)pyridin-2-yl)sulfamoyl)pyridin-2-yl)(ethyl)amino)propanoic Acid]	4550	52
CCc1ccc(F)cc1-c1nc(NS(=O)(=O)c2cccc(N(CCCCC(=O)O)C(C)C)n2)ccc1C(F)(F)F [Compound 99, 5-((6-(N-(6-(2-ethyl-5-fluorophenyl)-5-(trifluoromethyl)pyridin-2-yl)sulfamoyl)pyridin-2-yl)(isopropyl)amino)pentanoic Acid]	1330	–
